# Source: patent US12577217B2, “15-PGDH inhibitor” (KYORIN Pharmaceutical Co., Ltd., priority 2019, dated 2026)
# Target: T1, recombinant human 15-PGDH (Homo sapiens, UniProt P15428)
# T1 construct: purchased R&D Systems
# T1 sequence (P15428 1-266): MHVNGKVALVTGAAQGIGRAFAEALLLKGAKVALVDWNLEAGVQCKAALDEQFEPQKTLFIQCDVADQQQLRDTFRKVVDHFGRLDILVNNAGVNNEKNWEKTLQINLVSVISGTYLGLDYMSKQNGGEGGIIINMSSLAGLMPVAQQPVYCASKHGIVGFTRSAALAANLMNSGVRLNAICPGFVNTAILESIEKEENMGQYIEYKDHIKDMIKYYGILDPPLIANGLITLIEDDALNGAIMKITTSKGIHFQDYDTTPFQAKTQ
# Assay: 15-PGDH enzyme inhibition test
# Assay type: biochemical
# Conditions: 4 nM recombinant human 15-PGDH, 30 μM PGE2, 1 mM NAD+, 60 minutes after starting the reaction; read-out: IC50 Value
# Summary of the method: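 4 nM recombinant human enzyme pre-incubated with compound 12 min at room temperature in 50 mM Tris-HCl pH 8.0 with 0.01% Tween 20 and 0.01% bovine gamma globulin. Reaction started with 30 μM PGE2 and 1 mM NAD+, read after 60 min by fluorescence (ex 340/em 440 nm). IC50 from concentration-response curve.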
row,SMILES,IC50 [nM]
1,"COc1cc2c(cc1C(=O)N1CCCCC1)OCCN2c1ccc(C(=O)O)cc1 [Example 2-1, 4-(6-Methoxy-7-(piperidine-1-carbonyl)-2,3-dihydro-4H-benzo[b] [1,4]oxazin-4-yl)benzoic Acid]",10 to 100
2,COc1c(C(=O)N2CCCCC2)ccc2c1OCCN2c1ccc(C(=O)O)cc1 [Example 2-2],< 10
3,O=C(O)c1ccc(N2CCOc3cc(C(=O)N4CCCCC4)c(Cl)cc32)cc1 [Example 2-3],< 10
4,O=C(O)c1ccc(N2CCOc3c2ccc(C(=O)N2CCCCC2)c3Cl)cc1 [Example 2-4],< 10
5,O=C(O)c1ccc(N2CCCOc3cc(C(=O)N4CCCCC4)ccc32)cc1 [Example 2-5],< 10
6,O=C(O)c1ccc(N2CCCCOc3cc(C(=O)N4CCCCC4)ccc32)cc1 [Example 2-6],< 10
7,O=C(O)c1ccc(N2CCOc3cc(C(=O)N4CCCCC4)ccc32)cc1 [Example 2-7],< 10
8,O=C(O)c1ccc(N2CCCOc3cc(C(=O)N4CCCCC4)cnc32)cc1 [Example 2-8],< 10
9,O=C(O)c1ccc(N2CCCCOc3cc(C(=O)N4CCCCC4)cnc32)cc1 [Example 2-9],< 10
10,C[C@H]1COc2cc(C(=O)N3CCCCC3)ccc2N(c2ccc(C(=O)O)cc2)C1 [Example 2-10],< 10
11,C[C@@H]1COc2cc(C(=O)N3CCCCC3)ccc2N(c2ccc(C(=O)O)cc2)C1 [Example 2-11],< 10
12,COc1cc(N2CCOc3cc(C(=O)N4CCCCC4)ccc32)ccc1C(=O)O [Example 2-12],< 10
13,COc1cc(N2CCOc3cc(C(=O)N4CCC(F)(F)CC4)ccc32)ccc1C(=O)O [Example 2-13],< 10
14,COc1cc(N2CCOc3cc(C(=O)N4CC=CCC4)ccc32)ccc1C(=O)O [Example 2-14],< 10
15,O=C(O)c1ccc(N2CCSc3cc(C(=O)N4CCCCC4)ccc32)cc1 [Example 2-15],< 10
16,O=C(O)c1ccc(N2CC[S+]([O-])c3cc(C(=O)N4CCCCC4)ccc32)cc1 (stereo not shown) [Example 2-16],10 to 100
17,O=C(O)c1ccc(N2CCS(=O)(=O)c3cc(C(=O)N4CCCCC4)ccc32)cc1 [Example 2-17],10 to 100
18,O=C(O)c1ccc(N2CCCSc3cc(C(=O)N4CCCCC4)ccc32)cc1 [Example 2-18],< 10
19,O=C(O)c1ccc(N2CCC[S+]([O-])c3cc(C(=O)N4CCCCC4)ccc32)cc1 (stereo not shown) [Example 2-19],> 100

row,SMILES,IC50 [nM]
1,O=C(O)c1ccc(N2CCCS(=O)(=O)c3cc(C(=O)N4CCCCC4)ccc32)cc1 [Example 2-20],> 100
2,O=C(O)c1ccc(N2CCOc3cc(C(=O)N4CCCCC4)ccc32)nc1 [Example 2-21],< 10
3,O=C(O)c1ccc(N2CCOc3cc(C(=O)N4CCCCC4)ccc32)cn1 [Example 2-22],< 10
4,O=C(O)Cn1nc2cc(N3CCOc4cc(C(=O)N5CCCCC5)cnc43)ccn2c1=O [Example 2-23],< 10
5,O=C(O)c1ccc(N2CCCc3cc(C(=O)N4CCCCC4)ccc32)cc1 [Example 2-26],< 10
6,O=C(O)c1ccccc1N1CCOc2cc(C(=O)N3CCCCC3)ccc21 [Example 2-27],> 100
7,O=C(O)c1ccccc1N1CCc2cc(C(=O)N3CCCCC3)ccc21 [Example 2-28],> 100
8,O=C(O)c1cccc(N2CCc3cc(C(=O)N4CCCCC4)ccc32)c1 [Example 2-29],< 10
9,O=C(O)c1ccc(N2CCc3cc(C(=O)N4CCCCC4)ccc32)cc1 [Example 2-30],< 10
10,O=C(O)c1cccc(N2CCOc3cc(C(=O)N4CCCCC4)ccc32)c1 [Example 2-31],< 10
11,O=C(O)Cc1ccc(N2CCOc3cc(C(=O)N4CCCCC4)ccc32)cc1 [Example 2-32],< 10
12,O=C(O)CCc1ccc(N2CCOc3cc(C(=O)N4CCCCC4)ccc32)cc1 [Example 2-33],< 10
13,O=C(O)c1ccc(N2CCCc3cc(C(=O)N4CCCCC4)cnc32)cc1 [Example 2-34],< 10
14,O=C(O)c1ccc(N2CCOc3cc(C(=O)N4CCC(F)(F)CC4)ccc32)cc1 [Example 2-35],< 10
15,O=C(O)c1ccccc1N1CCOc2cc(C(=O)N3CCCCC3)cnc21 [Example 2-36],> 100
16,CC(C)(C(=O)O)c1ccc(N2CCOc3cc(C(=O)N4CCCCC4)cnc32)cc1 [Example 2-37],> 100
17,O=C(O)c1ccc(N2CCOc3cc(C(=O)N4CCCCC4)cnc32)cn1 [Example 2-38],< 10
18,"O=C(c1ccc2c(c1)OCCN2c1ccc(-c2nnn[nH]2)cc1)N1CCC(F)(F)CC1 [Example 3-1, (4-(4-(1H-Tetrazol-5-yl)phenyl)-3,4-dihydro-2H-benzo[b][1,4]oxazin-7-yl)(4,4-difluoropiperidin-1-yl)methanone]",< 10

# Second part, the compound after the results:
row,IC50 [nM],SMILES
1,< 10,"Cc1c(C(=O)N2CCCCC2)ccc2c1OCCN2c1ccc(C(=O)O)cc1 [Example 4-1, 4-(8-Methyl-7-(piperidine-1-carbonyl)-2,3-dihydro-4H-benzo[b][1,4]oxazin-4-yl)benzoic Acid]"
2,< 10,O=C(O)c1ccc(N2CCOc3cc(C(=O)N4CCCCC4)cnc32)cc1 [Example 4-2]
3,< 10,O=C(O)c1ccc(N2CCOc3nc(C(=O)N4CCCCC4)ccc32)cc1 [Example 4-4]
4,< 10,O=C(O)c1ccc(N2CCOc3cc(C(=O)N4CCC(F)(F)CC4)cnc32)cc1 [Example 4-5]
5,< 10,O=C(O)c1ccc(N2CCOc3cc(C(=O)N4CCCC(F)(F)C4)cnc32)cc1 [Example 4-6]
6,< 10,O=C(O)c1ccc(N2CCOc3cc(C(=O)N4CCC[C@@H](F)C4)cnc32)cc1 [Example 4-7]
7,< 10,O=C(O)c1ccc(N2CCOc3cc(C(=O)N4CCC[C@H](F)C4)cnc32)cc1 [Example 4-8]
8,< 10,O=C(O)c1ccc(N2CCOc3cc(C(=O)N4CC=CCC4)cnc32)cc1 [Example 4-9]
9,10 to 100,O=C(O)c1ccc(N2CCOc3cc(C(=O)N4CCOCC4)cnc32)cc1 [Example 4-10]
10,10 to 100,CN1CCN(C(=O)c2cnc3c(c2)OCCN3c2ccc(C(=O)O)cc2)CC1 [Example 4-11]
11,< 10,O=C(O)c1ccc(N2CCOc3cc(C(=O)N4CCCCC4)sc32)cc1 [Example 4-12]
12,10 to 100,O=C(O)C1CCC(N2CCOc3cc(C(=O)N4CCCCC4)ccc32)CC1 (stereo not shown) [Example 4-13]
13,< 10,O=C(O)C1CCC(N2CCOc3cc(C(=O)N4CCCCC4)ccc32)CC1 (stereo not shown) [Example 4-14]
14,10 to 100,COc1cc(N2CCOc3cc(C(=O)N4CCCCC4)cnc32)ccc1C(=O)O [Example 4-15]
15,< 10,Cc1cc(N2CCOc3cc(C(=O)N4CCCCC4)cnc32)ccc1C(=O)O [Example 4-16]
16,< 10,O=C(O)c1ccc(N2CCOc3cc(C(=O)N4CCCCC4)cnc32)cc1Cl [Example 4-17]
17,10 to 100,Cc1cc(C(=O)O)ccc1N1CCOc2cc(C(=O)N3CCCCC3)cnc21 [Example 4-18]
18,10 to 100,O=C(O)c1cccc(N2CCOc3cc(C(=O)N4CCCCC4)cnc32)c1 [Example 4-19]

row,IC50 [nM],SMILES
1,10 to 100,O=C(O)c1cccc(N2CCCc3cc(C(=O)N4CCCCC4)cnc32)c1 [Example 4-20]
2,< 10,CN1CCN(c2ccc(C(=O)O)cc2)c2ncc(C(=O)N3CCCCC3)cc21 [Example 4-21]
3,< 10,"COc1cc(N2CCOc3cc(C(=O)N4CC=CCC4)ccc32)ccc1C(N)=O [Example 5-1, 2-Methoxy-4-(7-(1,2,3,6-tetrahydropyridine-1-carbonyl)-2,3-dihydro-4H-benzo[b][1,4]oxazin-4-yl)benzamide]"
4,< 10,COc1cc(N2CCOc3cc(C(=O)N4CCC(F)(F)CC4)ccc32)ccc1C(N)=O [Example 5-2]
5,< 10,CNC(=O)c1ccc(N2CCOc3cc(C(=O)N4CC=CCC4)ccc32)cc1OC [Example 5-3]
6,< 10,"CNC(=O)c1ccc(N2CCOc3cc(C(=O)N4CCC(F)(F)CC4)ccc32)cc1OC [Example 6-1, 4-(7-(4,4-Difluoropiperidine-1-carbonyl)-2,3-dihydro-4H-benzo[b][1,4]oxazin-4-yl)-2-methoxy-N-methylbenzamide]"
7,< 10,NC(=O)c1ccc(N2CCOc3cc(C(=O)N4CCCCC4)ccc32)nc1 [Example 6-2]
8,< 10,NC(=O)c1ccc(N2CCOc3cc(C(=O)N4CCCCC4)ccc32)cn1 [Example 6-3]
9,< 10,NC(=O)c1ccc(N2CCOc3cc(C(=O)N4CCCCC4)cnc32)cc1F [Example 6-4]
10,< 10,CNC(=O)c1ccc(N2CCOc3cc(C(=O)N4CCCCC4)cnc32)cc1F [Example 6-5]
11,< 10,NC(=O)Cn1nc2cc(N3CCOc4cc(C(=O)N5CCCCC5)cnc43)ccn2c1=O [Example 6-6]
12,< 10,CNC(=O)Cn1nc2cc(N3CCOc4cc(C(=O)N5CCCCC5)cnc43)ccn2c1=O [Example 6-7]
13,< 10,CN(C)C(=O)Cn1nc2cc(N3CCOc4cc(C(=O)N5CCCCC5)cnc43)ccn2c1=O [Example 6-8]
14,> 100,CNC(=O)c1cn(C)c2cc(N3CCOc4cc(C(=O)N5CCCCC5)cnc43)ccc12 [Example 6-10]
15,10 to 100,CNC(=O)c1cc2ccc(N3CCOc4cc(C(=O)N5CCCCC5)cnc43)cc2n1C [Example 6-11]
16,> 100,CNC(=O)c1ccc(N2CCOc3cc(C(=O)N4CCCCC4)cnc32)cc1C [Example 6-12]
17,> 100,CNC(=O)c1ccc(N2CCOc3cc(C(=O)N4CCCCC4)cnc32)c(C)c1 [Example 6-13]
18,< 10,NC(=O)c1ccc(N2CCCc3cc(C(=O)N4CCCCC4)cnc32)cc1 [Example 6-14]
